Laboratory results as given in patent publication US5563176A (priority 1994, dated 1996).
Read-outs that look alike come from different tables or passages of the source.

Columns and labels:
L1210 parent cells = assay: sensitivity of mdr lines, L1210 parent; format: cell-based; details: Mus musculus
[1] = tested on: human lung adenocarcinoma MV522; details: in vivo
L1210 = assay: zone of inhibition / colony formation, L1210
CEM VM-1 variant cells = assay: sensitivity of mdr lines, CEM VM-1; format: cell-based; details: Homo sapiens, CEM-VM1
MDA-231, breast = assay: cells; format: cell-based
[2] = tested on: MDA-231 parent (Breast) cells; assay: sensitivity of mdr lines, MDA-231 parent; format: cell-based; details: Homo sapiens, MDA-MB-231
CFU-GM = assay: colony formation zone size, CFU-GM; details: CFU-GM
MCF-7, breast = assay: cells; format: cell-based, human
547, ovarian = assay: inhibition of thymidine incorporation after two hour exposure, 547; format: cell-based; details: 2 h; Table 1; 547, two hour exposure
Experimental: (§1) To assess cytotoxic effects, various concentrations of illudins were added to cultures of cells for 48 hours, then cell growth/viability was determined by trypan blue exclusion. As an alternative to 48 hour continuous exposure studies, cells were plated in liquid culture in 96 well plates, exposed to various concentrations of illudins for 2 hours, pulsed with [^3 H]-thymidine for one to two hours and harvested onto glass filters. The filter papers were added to vials containing scintillation fluid and residual radioactivity determined in a beta (scintillation) counter.
(§2) two hour exposure to the toxins (N - 3).

MV522 = assay: cells; format: cell-based; details: Homo sapiens, MV522, 48 h, read-out: 48 hour IC50
HL60 cells = assay: cells; format: cell-based; details: Homo sapiens, HL-60, 48 h, read-out: 48 hour IC50
[3] = tested on: MDA-231 3-1 (gp170+) cells; assay: sensitivity of mdr lines, MDA-231 3-1; format: cell-based; details: Homo sapiens, MDA-MB-231
8402, T-cell = assay: inhibition of thymidine incorporation after two hour exposure, 8402; format: cell-based; details: 2 h, Table 1, 8402, two hour exposure
Experimental: as §1, §2

8392 cells (B-cell) = assay: cells; format: cell-based; details: 2 h
KB parent cells = assay: sensitivity of mdr lines, KB parent; format: cell-based
HL-60 parent cells = assay: sensitivity of mdr lines, HL-60 parent; format: cell-based; details: Homo sapiens
HL-60 cells = assay: cells; format: cell-based, human; details: Homo sapiens, HL-60
[4] = tested on: Molt-4 (human T-cell leukemia) xenograft; assay: Molt-4 xenograft in athymic Balb/c nu/nu mice; format: in vivo; details: Molt-4, athymic mice; FIG. 4
C1498 cells = assay: C1498 syngeneic mouse AML model, increased life span; format: in vivo
Experimental: In collaboration, the in vivo effects of dehydroilludin M was again studied. Initially the compound was studied against L1210 cells. […] The dehydroilludin M was then administered as a 24 hour infusion (5.0 mg/kg); the ILS was 11%. After we became aware of the presence of the energy-dependent uptake in human myelocytic cells, dehydroilludin M was screened for in vivo […], produced an ILS of 35%.

[5] = tested on: L1210 CPA (cyclophos) cells; assay: sensitivity of mdr lines, L1210 CPA; format: cell-based; details: Mus musculus
KB VBL (gp170+) cells = assay: sensitivity of mdr lines, KB VBL; format: cell-based
Colon 38 = assay: zone of inhibition, Colon 38
[6] = tested on: L1210 DDPt (cis-plat) cells; assay: sensitivity of mdr lines, L1210 DDPt; format: cell-based; details: Mus musculus
Go = assay: zone of inhibition, Go
HL-60 ADR (gp150+) cells = assay: sensitivity of mdr lines, HL-60 ADR; format: cell-based; details: Homo sapiens, HL60/ADR
[7] = tested on: CEM Dox (gp170+) variant cells; assay: sensitivity of mdr lines, CEM Dox; format: cell-based
[8] = tested on: L1210 PAM (melphalan) cells; assay: sensitivity of mdr lines, L1210 PAM; format: cell-based; details: Mus musculus
HL60 cells (myeloid) = assay: cells; format: cell-based, human; details: Homo sapiens, HL-60, 2 h
8392 cells = assay: cells; format: cell-based; details: 48 h, read-out: 48 hour IC50
MV522 cells = assay: cells; format: cell-based, human; details: Homo sapiens, MV522, 2 h, read-out: Two hour IC50
[9] = tested on: CEM VLB100 (gp170+) variant cells; assay: sensitivity of mdr lines, CEM VLB100; format: cell-based
KB C-1 (gp170+) cells = assay: sensitivity of mdr lines, KB C-1; format: cell-based; details: KBC-1
SL-2, murine (thymic) = assay: inhibition of thymidine incorporation after two hour exposure, SL-2; format: cell-based; details: Mus musculus, 2 h; Table 1; SL-2, two hour exposure
Experimental: as §1, §2

[10] = tested on: MCF7-wt parent (Breast) cells; assay: sensitivity of mdr lines, MCF7-wt parent; format: cell-based; details: Homo sapiens
L1210 BCNU cells = assay: sensitivity of mdr lines, L1210 BCNU; format: cell-based; details: Mus musculus
CEM AraC variant cells = assay: sensitivity of mdr lines, CEM AraC; format: cell-based
[11] = tested on: human lung adenocarcinoma MV522; assay: animal or person; details: MV522, ip, read-out: life span
[12] = tested on: MCF7 ADR (GSH-transferase) cells; assay: cells; format: cell-based; details: Homo sapiens
CEM parent cells = assay: sensitivity of mdr lines, CEM parent; format: cell-based
242, melanoma = assay: inhibition of thymidine incorporation after two hour exposure, 242; format: cell-based; details: 2 h; Table 1; 242, two hour exposure
Experimental: as §1, §2

## CC1=C2C(=C[C@@](C)(CO)C2O)C(=O)[C@](C)(O)C12CC2 (stereo partly shown) [Illudin S]
L1210 parent cells
  IC50: 0.42 ± 0.08 nM
[1]
  life span versus control: no significant increase in the life span
L1210; L1210, 0.63 ug/disc
  Zone of Inhibition: 320
L1210; L1210, 1.25 ug/disc
  Zone of Inhibition: 400
L1210; L1210, 2.50 ug/disc
  Zone of Inhibition: 500
L1210; L1210, dilution 1/1,000
  Zone Size: 850
L1210; L1210, dilution 1/4,000
  Zone Size: 600
L1210; L1210, dilution 1/16,000
  Zone Size: 550
L1210; L1210, dilution 1/64,000
  Zone Size: 300
CEM VM-1 variant cells
  IC50: 16.2 ± 6.4 nM
MDA-231, breast
  sensitivity to illudin S: markedly sensitive
MDA-231, breast; Homo sapiens, MDA-MB-231, 2 h
  IC50: 2 ± 0.2 nM
[2]
  IC50: 0.85 ± 0.23 nM
CFU-GM; dilution 1/1,000
  Zone Size: 400
CFU-GM; dilution 1/4,000
  Zone Size: 200
CFU-GM; dilution 1/16,000
  Zone Size: 0
CFU-GM; dilution 1/64,000
  Zone Size: 0
MCF-7, breast
  sensitivity to illudin S: markedly sensitive
MCF-7, breast; Homo sapiens, MCF7, 2 h
  IC50: 58 ± 5 nM
547, ovarian
  IC50: 607 ± 110 nM
MV522
  IC50: 4 ± 1 nM
HL60 cells
  IC50: 10 ± 1 nM
[3]
  IC50: 0.89 ± 0.38 nM
8402, T-cell
  IC50: 669 ± 196 nM
8392 cells (B-cell)
  IC50: 236 ± 31 nM
8392 cells (B-cell); read-out: Two hour IC50
  IC50: 236 ± 2 nM
KB parent cells
  IC50: 0.58 ± 0.12 nM
HL-60 parent cells
  IC50: 3.1 ± 1.1 nM
HL-60 cells
  IC50: 10 nM
[4]
  tumor growth: tumor growth delay
C1498 cells; 2.5 mg/kg IP once a day for 5 days
  ILS: 44%
C1498 cells; single bolus, 2.5 mg/kg IP
  ILS: 35%
[5]
  IC50: 0.46 ± 0.12 nM
KB VBL (gp170+) cells
  IC50: 0.69 ± 0.11 nM
Colon 38; Colon 38, 0.63 ug/disc
  Zone of Inhibition: 0
Colon 38; Colon 38, 1.25 ug/disc
  Zone of Inhibition: 0
Colon 38; Colon 38, 2.50 ug/disc
  Zone of Inhibition: 30
[6]
  IC50: 0.46 ± 0.12 nM
Go; 0.63 ug/disc
  Zone of Inhibition: 3
Go; 1.25 ug/disc
  Zone of Inhibition: 70
Go; 2.50 ug/disc
  Zone of Inhibition: 240
HL-60 ADR (gp150+) cells
  IC50: 1.9 ± 0.8 nM
[7]
  IC50: 14 nM
[8]
  IC50: 0.62 ± 0.15 nM
HL60 cells (myeloid)
  IC50: 7 ± 1 nM
HL60 cells (myeloid); read-out: Two hour IC50
  IC50: 10 ± 1 nM
8392 cells
  IC50: 8 ± 2 nM
MV522 cells
  IC50: 19 ± 6 nM
[9]
  IC50: 3.7 ± 0.7 nM
KB C-1 (gp170+) cells
  IC50: 0.69 ± 0.15 nM
SL-2, murine (thymic)
  IC50: 142 ± 15 nM
[10]; MCF7-wt Parent, read-out: Sensitivity of mdr lines
  IC50: 0.88 ± 0.11 nM
[10]; MCF7-wt, read-out: parent IC50
  IC50: 0.88 nM
L1210 BCNU cells
  IC50: 0.58 ± 0.08 nM
CEM AraC variant cells
  IC50: 14 nM
[11]
  response vs control in vivo at 0.25 mg/kg: 104 ± 20%
  response vs control in vivo at 2.5 mg/kg: < 26%
[12]; NCI/ADR-RES, read-out: Sensitivity of mdr lines
  IC50: 3.7 ± 0.4 nM
[12]; read-out: daughter line IC50
  IC50: 3.7 nM
CEM parent cells
  IC50: 8.3 ± 2.6 nM
242, melanoma
  IC50: 607 ± 70 nM
